Experimental data: US20100137222A1, “Basic Peptides and Their Use as Combined Antibacterial-Antifungine Agents” (NOVABIOTICS LIMITED, priority 2007, published 2010)
Like-named read-outs stand apart in the source and are kept apart here. Marks after values point to notes of the source that are not given here. No end group written: not given here.

Assays:
P. acnes DSM1897 = type: cell-based, Propionibacterium acnes
Procedure: Broth Dilution Antibacterial Susceptibility Testing
The sensitivity of relevant bacterial strains to peptides was determined using Clinical Laboratory Standard Institute (CLSI; formerly NCCLS) Approved Standards. Bacterial susceptibility was tested using “Methods for Dilution Antimicrobial Susceptibility Tests for Bacteria That Grow […]; Approved Standard—Seventh Edition M7-A7”

M. furfur DSM6170 = type: cell-based, Malassezia furfur
Procedure: Broth Dilution Antifungal Susceptibility Testing
The sensitivity of relevant fungal strains to peptides was determined using Clinical Laboratory Standard Institute (CLSI; formerly NCCLS) Approved Standards. Yeast susceptibility was tested using “Reference Method for Broth Dilution Antifungal Susceptibility Testing of Yeasts; Approved Standard—Second Edition M27-A”.

[1] = Table 3, starred values (*value in mg/ml)
[2] = Table 1, starred values (*value in mM)

Row | Compound | Antimicrobial Activity (MIC) P. acnes DSM1897 (P. acnes DSM1897; DSM1897) | other results
1 | (H)n, n = 32-161, HCl salt (5-25 kDa) [NP131] | – | MIC against Malassezia furfur DSM6170 (M. furfur DSM6170; [1]): 0.0625* mg/ml
2 | RVRVR [NP301, RVRVR] | >2 mM | –
3 | (H)n, n = >32, HCl salt (>5 kDa) [NP132] | – | MIC against Malassezia furfur DSM6170 (M. furfur DSM6170; [1]): 0.0625* mg/ml
4 | RRWRR [NP322, RRWRR] | 2 mM | –
5 | N=C(N)NCCC[C@@H](N)C(=O)N[C@H](CCCNC(=N)N)C(=O)N[C@H](CCCNC(=N)N)C(=O)N[C@H](CCCNC(=N)N)C(=O)N[C@H](CCCNC(=N)N)C(=O)N[C@H](CCCNC(=N)N)C(=O)N[C@H](CCCNC(=N)N)C(=O)N[C@H](CCCNC(=N)N)C(=O)N[C@H](CCCNC(=N)N)C(=O)N[C@H](CCCNC(=N)N)C(=O)N[C@H](CCCNC(=N)N)C(=O)N[C@H](CCCNC(=N)N)C(=O)N[C@H](CCCNC(=N)N)C(=O)O [NP339, dRdRdRdRdRdRdRdRdRdRdRdRdR] | 0.02 mM | Antimicrobial Activity (MIC) M. furfur DSM6170 (M. furfur DSM6170; DSM6170): 0.008 mM
6 | RRVRVRR [NP307, RRVRVRR] | >2 mM | –
7 | KKKKKKKKKKKKKKK [NP348] | – | Antimicrobial Activity (MIC) P. acnes DSM1897 (P. acnes DSM1897; [2]): 0.0625* mM; Antimicrobial Activity (MIC) M. furfur DSM6170 (M. furfur DSM6170; [2]): 0.25* mM
8 | KLTKPKPQAESKKKKK [NP332] | >2 mM | –
9 | RRRVRRR [NP306, RRRVRRR] | 2 mM | –
10 | RRRWRRR [NP325, RRRWRRR] | 2 mM | –
11 | PKTKAKAKAKKGKGKD [NP336] | >2 mM | –
12 | (R)n, n = 86-402, HCl salt (15-70 kDa) [NP122] | – | MIC against Malassezia furfur DSM6170 (M. furfur DSM6170; [1]): 0.25* mg/ml
13 | (R)n, n = 28-86, HCl salt (5-15 kDa) [NP121] | – | MIC against Malassezia furfur DSM6170 (M. furfur DSM6170; [1]): 0.25* mg/ml
14 | CC(=O)N[C@@H](CCCNC(=N)N)C(=O)N[C@@H](CCCNC(=N)N)C(=O)N[C@@H](CCCNC(=N)N)C(=O)N[C@@H](CCCNC(=N)N)C(=O)N[C@@H](CCCNC(=N)N)C(=O)N[C@@H](CCCNC(=N)N)C(=O)N[C@@H](CCCNC(=N)N)C(=O)N[C@@H](CCCNC(=N)N)C(=O)N[C@@H](CCCNC(=N)N)C(=O)N[C@@H](CCCNC(=N)N)C(=O)N[C@@H](CCCNC(=N)N)C(=O)N[C@@H](CCCNC(=N)N)C(=O)N[C@@H](CCCNC(=N)N)C(N)=O [NP338] | 0.005 mM | Antimicrobial Activity (MIC) M. furfur DSM6170 (M. furfur DSM6170; DSM6170): <0.0156 mM; MIC against Malassezia furfur DSM6170 (M. furfur DSM6170; Table 3, unstarred values): <0.0156 mM
15 | KVRQGTLKKAR [NP335] | >2 mM | –
16 | RRVVR [NP302, RRVVR] | >2 mM | –
17 | RRRRVVRRRR [NP310] | 0.5 mM | Antimicrobial Activity (MIC) M. furfur DSM6170 (M. furfur DSM6170; DSM6170): 0.5 mM; MIC against Malassezia furfur DSM6170 (M. furfur DSM6170; Table 3, unstarred values): 0.5 mM
18 | (I-K)n, n = 100-200, HCl salt [NP101] | – | Antimicrobial Activity (MIC) P. acnes DSM1897 (P. acnes DSM1897; Table 1, unstarred values): 0.1 mg/mL
19 | RRWRWR [NP323, RRWRWR] | 0.5 mM | –
20 | N=C(N)NCCC[C@H](NC(=O)[C@H](CCCNC(=N)N)NC(=O)[C@H](CCCNC(=N)N)NC(=O)[C@H](CCCNC(=N)N)NC(=O)[C@H](CCCNC(=N)N)NC(=O)[C@H](CCCNC(=N)N)NC(=O)[C@H](CCCNC(=N)N)NC(=O)[C@H](CCCNC(=N)N)NC(=O)[C@H](CCCNC(=N)N)NC(=O)[C@H](CCCNC(=N)N)NC(=O)[C@H](CCCNC(=N)N)NC(=O)[C@H](CCCNC(=N)N)NC(=O)[C@@H](N)CCCNC(=N)N)C(=O)O [NP337] | 0.0025 mM | Antimicrobial Activity (MIC) M. furfur DSM6170 (M. furfur DSM6170; DSM6170): 0.03125 mM
21 | (I-K)n, n = 7-27, HBr salt [NP106] | – | Antimicrobial Activity (MIC) P. acnes DSM1897 (P. acnes DSM1897; Table 1, unstarred values): 0.125 mg/mL; Antimicrobial Activity (MIC) M. furfur DSM6170 (M. furfur DSM6170; Table 1, unstarred values): 0.5 mg/mL
22 | KKKKKKKKK [NP345] | 2.5* mM | –
23 | KKKKKKK [NP344, KKKKKKK] | >10* mM | Antimicrobial Activity (MIC) M. furfur DSM6170 (M. furfur DSM6170; DSM6170): 1* mM
24 | CC(=O)N[C@H](CCCNC(=N)N)C(=O)N[C@H](CCCNC(=N)N)C(=O)N[C@H](CCCNC(=N)N)C(=O)N[C@H](CCCNC(=N)N)C(=O)N[C@H](CCCNC(=N)N)C(=O)N[C@H](CCCNC(=N)N)C(=O)N[C@H](CCCNC(=N)N)C(=O)N[C@H](CCCNC(=N)N)C(=O)N[C@H](CCCNC(=N)N)C(=O)N[C@H](CCCNC(=N)N)C(=O)N[C@H](CCCNC(=N)N)C(=O)N[C@H](CCCNC(=N)N)C(=O)N[C@H](CCCNC(=N)N)C(N)=O [NP340, Ac-dRdRdRdRdRdRdRdRdRdRdRdRdR-NH2] | 0.02 mM | Antimicrobial Activity (MIC) M. furfur DSM6170 (M. furfur DSM6170; DSM6170): 0.008 mM

The next lines start with results.

Row | Antimicrobial Activity (MIC) P. acnes DSM1897 (P. acnes DSM1897; DSM1897) | Compound | other results
25 | 1 mM | RRWWR [NP321, RRWWR] | –
26 | >2 mM | KKKKKEGKKQEKMLD [NP333] | –
27 | >2 mM | GKKEKPEKKVKK [NP331] | –
28 | 0.25 mM | RRWRWRR [NP326, RRWRWRR] | –
29 | >2 mM | RRRVVRRR [NP308] | –
30 | 1 mM | RWRWR [NP320, RWRWR] | –
31 | 0.5 mM | RRWRRWRR [NP328] | –
32 | >10* mM | KKKKK [NP343, KKKKK] | –
33 | 0.25 mM | RRWWRR [NP324, RRWWRR] | –
34 | 0.125 mM | RRRWWRRR [NP327] | –
35 | >2 mM | RRVVRR [NP305, RRVVRR] | –
36 | 2 mM | RRVVRRVVRR [NP311] | –
37 | >2 mM | KKKDKVKK [NP334] | –
38 | <0.0156 mM | N=C(N)NCCC[C@H](NC(=O)[C@H](CCCNC(=N)N)NC(=O)[C@H](CCCNC(=N)N)NC(=O)[C@H](CCCNC(=N)N)NC(=O)[C@H](CCCNC(=N)N)NC(=O)[C@H](CCCNC(=N)N)NC(=O)[C@H](CCCNC(=N)N)NC(=O)[C@H](CCCNC(=N)N)NC(=O)[C@H](CCCNC(=N)N)NC(=O)[C@H](CCCNC(=N)N)NC(=O)[C@@H](N)CCCNC(=N)N)C(=O)O [NP317] | Antimicrobial Activity (MIC) M. furfur DSM6170 (M. furfur DSM6170; DSM6170): <0.0156 mM; MIC against Malassezia furfur DSM6170 (M. furfur DSM6170; Table 3, unstarred values): <0.0156 mM
39 | 1 mM | RRVRRVRR [NP309] | –
40 | >2 mM | RRVRVR [NP304, RRVRVR] | –
41 | >2 mM | RRVRR [NP303, RRVRR] | –
